Structures can show the parent of a compound that is named as a salt.
Biological target: T1, hTRPM8 (Homo sapiens, UniProt Q7Z2W7)
T1 construct: expressed in transfected cells
Assay: Assay on TRPM8 modulators: calcium imaging (Fluo-4, Flexstation) in HEK293 cell line stably expressing hTRPM8
Format: cell-based
Conditions: TRPM8 agonist activity, calcium influx, HEK293 stably expressing hTRPM8, sigmoidal dose-response fit
Method: A HEK293 cell line stably expressing hTRPM8 was generated according to Klein et al., (Chem. Senses 36: 649-658, 2011) and receptor activation was monitored by calcium imaging in a Flexstation. For Ca-imaging assays of TRPM8 channel activation, cells were seeded on day 0 at a density of 12000 cells per well in Dulbecco's modified Eagle medium (DMEM) containing 9% foetal bovine serum in black, clear bottom 96-well plates that had been coated with 0.001% polyethyleneimine (molecular weight=60 000, Acros Organics). On day 2, agonists were evaluated via calcium imaging using Fluo-4. Briefly, growth medium was discarded, and the cells were incubated in the dark for 1 h at 37° C. in 50 μL loading buffer consisting of 2.7 μM Fluo-4 AM (Invitrogen) and […] probenecid (Sigma-Aldrich) in DMEM (without serum). After incubation, the plates were washed five times with 100 μL of assay buffer (in mM: 130 NaCl, 5 KCl, 10 HEPES, 2 CaCl2, and 10 glucose, pH7.4.) and further incubated in the dark at room temperature for 30 min. The cells were then washed five times with 100 μL assay buffer and then calcium influx to serial dilutions of inventive compounds were measured in a Flexstation 3 (Molecular Devices). Receptor activation was initiated following addition of 20 μl of a 10-fold concentrated ligand stock solution, which is also prepared in assay buffer. Fluorescence was continuously monitored for 15 seconds prior to ligand addition and for 105 seconds after ligand addition, for a total of 120 seconds. Maximal receptor activation in relation to solvent control and relative to 31.6 μM menthol is determined. Data from serial dilutions were processed with a KNIME workflow to fit a sigmoidal dose-response curve and to extrapolate EC50 values.

T1 sequence (Q7Z2W7 whole entry): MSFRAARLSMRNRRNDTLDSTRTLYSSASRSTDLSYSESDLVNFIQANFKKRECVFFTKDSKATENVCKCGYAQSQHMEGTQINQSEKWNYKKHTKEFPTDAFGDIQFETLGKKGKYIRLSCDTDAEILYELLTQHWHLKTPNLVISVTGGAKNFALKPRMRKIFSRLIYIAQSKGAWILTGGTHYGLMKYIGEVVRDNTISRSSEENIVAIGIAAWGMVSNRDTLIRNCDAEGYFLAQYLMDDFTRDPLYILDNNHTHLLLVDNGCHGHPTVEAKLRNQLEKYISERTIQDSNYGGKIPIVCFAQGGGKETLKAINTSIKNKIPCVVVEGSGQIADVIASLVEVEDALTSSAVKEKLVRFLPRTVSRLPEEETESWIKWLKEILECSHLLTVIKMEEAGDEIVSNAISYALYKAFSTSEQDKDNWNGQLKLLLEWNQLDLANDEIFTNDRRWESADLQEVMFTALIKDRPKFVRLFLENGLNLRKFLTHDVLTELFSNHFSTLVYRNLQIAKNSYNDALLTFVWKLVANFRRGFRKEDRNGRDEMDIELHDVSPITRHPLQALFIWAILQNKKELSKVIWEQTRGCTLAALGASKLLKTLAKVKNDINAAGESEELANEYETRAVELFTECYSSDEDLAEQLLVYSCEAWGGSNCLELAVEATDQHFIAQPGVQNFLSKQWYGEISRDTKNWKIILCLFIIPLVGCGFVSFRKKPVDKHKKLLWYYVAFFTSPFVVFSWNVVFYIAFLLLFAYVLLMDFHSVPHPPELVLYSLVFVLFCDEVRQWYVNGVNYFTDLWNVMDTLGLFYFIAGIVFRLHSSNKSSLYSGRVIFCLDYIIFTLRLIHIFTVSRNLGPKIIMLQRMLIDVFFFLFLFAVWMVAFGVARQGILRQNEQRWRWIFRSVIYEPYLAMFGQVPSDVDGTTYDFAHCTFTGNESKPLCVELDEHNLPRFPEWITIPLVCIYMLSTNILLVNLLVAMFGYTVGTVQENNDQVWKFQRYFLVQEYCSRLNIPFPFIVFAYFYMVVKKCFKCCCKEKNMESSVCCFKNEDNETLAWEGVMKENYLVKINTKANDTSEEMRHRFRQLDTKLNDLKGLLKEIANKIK

| SMILES | EC50 |
| --- | --- |
| Cc1ccc(OCCN2CCC(CO)CC2)c(Cc2ccccc2)c1 [compound 40, (1-(2-(2-benzyl-4-methylphenoxy)ethyl)piperidin-4-yl)methanol] | 1 to 35 µM |
| Cc1ccc(OCCN2CCN(C)CC2)c(C(O)c2ccccc2)c1 (centres unmarked) [compound 41, (5-methyl-2-(2-(4-methylpiperazin-1-yl)ethoxy)phenyl)(phenyl)methanol] | 1 to 35 µM |
| Cc1ccc(OCCN2CCN(C)CC2)c(C(=O)c2ccccc2)c1 [compound 42, (5-methyl-2-(2-(4-methylpiperazin-1-yl)ethoxy)phenyl)(phenyl)methanone] | 1 to 35 µM |
| CC1=C(OCCN2CCN(C)CC2)/C(=C/c2ccccc2)CC(C)C1 (centres unmarked) [compound 43, (E)-1-(2-((6-benzylidene-2,4-dimethylcyclohex-1-en-1-yl)oxy)ethyl)-4-methylpiperazine] | 1 to 35 µM |
| Cc1ccc(/C=C/CN2CCN(C)CC2)c(Cc2ccccc2)c1 [compound 44, (E)-1-(3-(2-benzyl-4-methylphenyl)allyl)-4-methylpiperazine] | 1 to 35 µM |
| Cc1ccc(OCCN2CCN(C)CC2)c(/C=C2\CCCCC2=O)c1 [compound 46, (E)-2-(5-methyl-2-(2-(4-methylpiperazin-1-yl)ethoxy)benzylidene)cyclohexan-1-one] | 0.3 to 1 µM |
| Cc1ccc(OCCN2CCOCC2)c(/C=C2\CCCCC2=O)c1 [compound 47, (E)-2-(5-methyl-2-(2-morpholinoethoxy)benzylidene)cyclohexan-1-one] | 0.05 to 0.3 µM |
| Cc1cc(C)c(OCC(C)N2CCOCC2)c(Cc2ccccc2C#N)c1 (centres unmarked) [compound 48, 2-(3,5-dimethyl-2-(2-morpholinopropoxy)benzyl)benzonitrile] | 0.05 to 0.3 µM |
| Cc1cc(C)c(OC(C)CN2CCOCC2)c(Cc2ccccc2C#N)c1 (centres unmarked) [compound 49, 2-(3,5-dimethyl-2-((1-morpholinopropan-2-yl)oxy)benzyl)benzonitrile] | 0.05 to 0.3 µM |
| CN1CCN(CC2CCc3cccc(Cc4ccccc4)c3O2)CC1 (centres unmarked) [compound 50, 1-((8-benzylchroman-2-yl)methyl)-4-methylpiperazine] | 1 to 35 µM |
| CC1CCC(OCCN2CCN(C)CC2)C(Cc2ccccc2)C1 (centres unmarked) [compound 51, 1-(2-((2-benzyl-4-methylcyclohexyl)oxy)ethyl)-4-methylpiperazine] | 1 to 35 µM |
| CC1CCC(OCCN2CCN(C)CC2)C(Cc2ccccc2)C1 (centres unmarked) [compound 52, 1-(2-((2-benzyl-4-methylcyclohexyl)oxy)ethyl)-4-methylpiperazine dihydrochloride] | 1 to 35 µM |
| Cc1ccc(OCCN2CCN(C)CC2)c(Cc2ccc(Cl)s2)c1 [compound 53, 1-(2-(2-((5-chlorothiophen-2-yl)methyl)-4-methylphenoxy)ethyl)-4-methylpiperazine] | 1 to 35 µM |
| Cc1cc(C)c(OCCN2CCN(C)CC2)c(Cc2ccccc2Br)c1 [compound 54, 1-(2-(2-(2-bromobenzyl)-4,6-dimethylphenoxy)ethyl)-4-methylpiperazine] | 0.3 to 1 µM |
| Cc1ccc(OCCN2CCN(C)CC2)c(Cc2ccccc2Cl)c1 [compound 55, 1-(2-(2-(2-chlorobenzyl)-4-methylphenoxy)ethyl)-4-methylpiperazine] | 0.05 to 0.3 µM |
| Cc1cc(C)c(OCCN2CCN(C)CC2)c(Cc2ccccc2F)c1 [compound 56, 1-(2-(2-(2-fluorobenzyl)-4,6-dimethylphenoxy)ethyl)-4-methylpiperazine] | 0.05 to 0.3 µM |
| Cc1cc(C)c(OCCN2CCN(C)CC2)c(Cc2ccccc2I)c1 [compound 57, 1-(2-(2-(2-iodobenzyl)-4,6-dimethylphenoxy)ethyl)-4-methylpiperazine] | 0.3 to 1 µM |
| Cc1cc(C)c(OCCN2CCN(C)CC2)c(Cc2cccc(Br)c2)c1 [compound 58, 1-(2-(2-(3-bromobenzyl)-4,6-dimethylphenoxy)ethyl)-4-methylpiperazine] | 1 to 35 µM |
| Cc1ccc(OCCN2CCN(C)CC2)c(Cc2cccc(Cl)c2)c1 [compound 59, 1-(2-(2-(3-chlorobenzyl)-4-methylphenoxy)ethyl)-4-methylpiperazine] | 1 to 35 µM |
| Cc1ccc(OCCN2CCN(C)CC2)c(Cc2ccc(Cl)cc2)c1 [compound 60, 1-(2-(2-(4-chlorobenzyl)-4-methylphenoxy)ethyl)-4-methylpiperazine hydrochloride] | 1 to 35 µM |
| Cc1ccc(OCCN2CCN(C)CC2)c(Cc2ccco2)c1 [compound 61, 1-(2-(2-(furan-2-ylmethyl)-4-methylphenoxy)ethyl)-4-methylpiperazine] | 1 to 35 µM |
| Cc1cc(C)c(OCCN2CCN(C)CC2)c(Cc2ccccc2C(F)(F)F)c1 [compound 62, 1-(2-(2,4-dimethyl-6-(2-(trifluoromethyl)benzyl)phenoxy)ethyl)-4-methylpiperazine] | 0.3 to 1 µM |
| Cc1cc(C)c(OCCN2CCN(C)CC2)c(Cc2ccccn2)c1 [compound 63, 1-(2-(2,4-dimethyl-6-(pyridin-2-ylmethyl)phenoxy)ethyl)-4-methylpiperazine] | 1 to 35 µM |
| Cc1cc(C)c(OCCN2CCN(C)CC2)c(Cc2cccnc2)c1 [compound 64, 1-(2-(2,4-dimethyl-6-(pyridin-3-ylmethyl)phenoxy)ethyl)-4-methylpiperazine] | 1 to 35 µM |

Second part, the compound after the results:

| EC50 | SMILES |
| --- | --- |
| 1 to 35 µM | Cc1cc(C)c(OCCN2CCN(C)CC2)c(Cc2ccncc2)c1 [compound 65, 1-(2-(2,4-dimethyl-6-(pyridin-4-ylmethyl)phenoxy)ethyl)-4-methylpiperazine] |
| 1 to 35 µM | Cc1ccc(C)c(OCCN2CCN(C)CC2)c1Cc1ccccc1 [compound 66, 1-(2-(2-benzyl-3,6-dimethylphenoxy)ethyl)-4-methylpiperazine] |
| 1 to 35 µM | COc1cccc(OCCN2CCN(C)CC2)c1Cc1ccccc1 [compound 67, 1-(2-(2-benzyl-3-methoxyphenoxy)ethyl)-4-methylpiperazine] |
| 1 to 35 µM | Cc1cccc(OCCN2CCN(C)CC2)c1Cc1ccccc1 [compound 68, 1-(2-(2-benzyl-3-methylphenoxy)ethyl)-4-methylpiperazine] |
| 1 to 35 µM | COc1cc(C(C)(C)C)cc(Cc2ccccc2)c1OCCN1CCN(C)CC1 [compound 69, 1-(2-(2-benzyl-4-(tert-butyl)-6-methoxyphenoxy)ethyl)-4-methylpiperazine] |
| 0.3 to 1 µM | Cc1cc(C)c(OCCN2CCN(C)CC2)c(Cc2ccccc2)c1 [compound 70, 1-(2-(2-benzyl-4,6-dimethylphenoxy)ethyl)-4-methylpiperazine] |
| 1 to 35 µM | CCN1CCN(CCOc2ccc(Cl)cc2Cc2ccccc2)CC1 [compound 72, 1-(2-(2-benzyl-4-chlorophenoxy)ethyl)-4-ethylpiperazine hydrochloride] |
| 0.3 to 1 µM | CN1CCN(CCOc2ccc(Cl)cc2Cc2ccccc2)CC1 [compound 73, 1-(2-(2-benzyl-4-chlorophenoxy)ethyl)-4-methylpiperazine hydrochloride] |
| 0.3 to 1 µM | CCc1ccc(OCCN2CCN(C)CC2)c(Cc2ccccc2)c1 [compound 74, 1-(2-(2-benzyl-4-ethylphenoxy)ethyl)-4-methylpiperazine hydrochloride] |
| 1 to 35 µM | CC(C)c1ccc(OCCN2CCN(C)CC2)c(Cc2ccccc2)c1 [compound 75, 1-(2-(2-benzyl-4-isopropylphenoxy)ethyl)-4-methylpiperazine] |
| 1 to 35 µM | CCN1CCN(CCOc2ccc(C)cc2Cc2ccccc2)CC1 [compound 76, 1-(2-(2-benzyl-4-methylphenoxy)ethyl)-4-ethylpiperazine hydrochloride] |
| 1 to 35 µM | Cc1ccc(OCCN2CCNCC2)c(Cc2ccccc2)c1 [compound 88, 1-(2-(2-benzyl-4-methylphenoxy)ethyl)piperazine] |
| 1 to 35 µM | Cc1ccc(OCCN2CCC(O)CC2)c(Cc2ccccc2)c1 [compound 89, 1-(2-(2-benzyl-4-methylphenoxy)ethyl)piperidin-4-ol] |
| 0.3 to 1 µM | Cc1ccc(OC(C)CN2CCN(C)CC2)c(Cc2ccccc2)c1 (centres unmarked) [compound 91, 1-(2-(2-benzyl-4-methylphenoxy)propyl)-4-methylpiperazine hydrochloride] |
| 1 to 35 µM | Cc1cccc(Cc2ccccc2)c1OCCN1CCN(C)CC1 [compound 92, 1-(2-(2-benzyl-6-methylphenoxy)ethyl)-4-methylpiperazine] |
| 1 to 35 µM | CN1CCN(CCOc2ccccc2Cc2ccccc2)CC1 [compound 93, 1-(2-(2-benzylphenoxy)ethyl)-4-methylpiperazine hydrochloride] |
| 1 to 35 µM | Cc1ccc(OCCN2CCN(C)CC2)c(CC(C)C)c1 [compound 94, 1-(2-(2-isobutyl-4-methylphenoxy)ethyl)-4-methylpiperazine] |
| 1 to 35 µM | Cc1ccc(CCN2CCN(C)CC2)c(Cc2ccccc2)c1 [compound 96, 1-(2-benzyl-4-methylphenethyl)-4-methylpiperazine] |
| 0.3 to 1 µM | Cc1ccc(CC(O)CN2CCN(C)CC2)c(Cc2ccccc2)c1 (centres unmarked) [compound 97, 1-(2-benzyl-4-methylphenyl)-3-(4-methylpiperazin-1-yl)propan-2-ol] |
| 1 to 35 µM | Cc1ccc(CC(=O)CN2CCN(C)CC2)c(Cc2ccccc2)c1 [compound 98, 1-(2-benzyl-4-methylphenyl)-3-(4-methylpiperazin-1-yl)propan-2-one] |
